Test results published in US7615361B2, “Toxicity screening methods” (Ceetox, Inc., priority 2006, dated 2009).

Key:
H4IIE cells [1] = assay: Cell number (propidium iodide); type: cell-based, rat
Description: (§1) One test compound (Compound A) was received as dry powder and evaluated for potential cytotoxicity in a battery of in vitro assays. The compound was tested using both rat cardiomyocytes (CM) from rat neonates and a rat hepatoma (H4IIE) cell line. […] The cell supernatant or the cells themselves were harvested for biochemical analysis. General cytotoxicity was evaluated by monitoring membrane integrity, mitochondrial function, cell proliferation, oxidative stress, and apoptosis. In addition, interaction with P-glycoprotein (PgP) on H4IIE cells and solubility of the test compound were also assessed. The means of each exposure group (n=3-7) were calculated for each assay performed.
(§2) Experimental Protocol: The test compound was provided and stored at 4° C. until needed. Dosing solutions were prepared in complete culture medium. The rat hepatoma (H4IIE) cell line was used as the test system.
Cell Proliferation: Cell proliferation in each well was measured with propidium iodide (PI). This specific nucleic acid binding dye fluoresces when intercalated within the nucleic acids. The 15 nm shift enhances PI fluorescence approximately 20 times while the excitation maxima are shifted 30-40 nm. During method development experiments, it was determined that Triton-X-100 was the best solution to permeabilize the H4IIE cells thereby allowing the PI access to intracellular RNA and DNA. Fluorescence was measured using a Packard Fusion plate reader or equivalent reader at 540 nm excitation and 610 nm emission.
Cell Proliferation: After incubation, the test compound was removed and Triton X-100 solution containing propidium iodide is added. The plate was incubated and read on a fluorescent plate reader. Data was collected as relative fluorescent units (RFU). The blank was subtracted from the final well RFU. It represents the average of the first and last columns which contain no cells on that particular plate. The controls are untreated cells allowed to grow on the same plate. The compounds are represented by several separate RFU data points for each of the tested concentrations. The percent change relative to controls was calculated by dividing the average RFU by the control cell RFU and multiplying by 100.

rat cardiomyocytes [2] = assay: MemTox membrane leakage (AK / α-GST); type: cell-based
Description: as §1
(§3) Membrane Leakage (α-Glutathione S-transferase and/or Adenylate Kinase): The presence of Adenylate Kinase (AK) or α-Glutathione S-transferase (α-GST), both enzyme leakage markers, was measured in the culture medium using an activity assay for Adenylate Kinase and/or an ELISA assay for α-GST. At the end of the exposure period, the medium covering the cells in each well was removed and placed into new 96-well plates with appropriate labeling. […] Luminescence (AK) values were measured with a Packard Fusion or equivalent plate reader, and absorbance (α-GST) values were measured with a Packard SpectraCount™ or equivalent reader at 450 nm and reference absorbance at 650 nm.
(§4) Membrane Leakage (α-Glutathione S-transferase and/or Adenylate Kinase): Leakage of Adenylate Kinase or α-GST from the cell into the culture medium was determined by collecting the culture medium at the end of the exposure period. Thus, the values measured represent total enzyme leakage lost over the exposure period. The control for 100% dead or maximum enzyme release was based on cells treated with 1 mM digitonin at the time of dosing. Percent dead cells relative to digitonin treated cells was determined and then subtracted from 100% to yield the percent live cells.

H4IIE cells [3] = assay: MemTox membrane leakage (AK / α-GST); type: cell-based, rat
Description: as §1, §2, §3, §4

rat cardiomyocytes [4] = assay: MTT reduction; type: cell-based
Description: as §1
(§5) Tetrazolium Dye Reduction: 3-[4,5-dimethylthiazol-2-yl]

H4IIE cells [5] = assay: MTT reduction; type: cell-based, rat
Description: as §1, §2, §5

rat cardiomyocytes [6] = assay: Intracellular ATP levels; type: cell-based
Description: as §1
(§6) Intracellular ATP Levels: Cellular Adenosine triphosphate (ATP) was determined with an assay based on a reaction between ATP+D-luciferin+oxygen catalyzed by luciferase to yield Oxyluciferin+AMP+PPi+CO2+light. The emitted light is proportional to the amount of ATP present. […] In addition, a unique cell lysis reagent inhibits endogenous ATPases and therefore stabilizes cellular ATP by preventing its degradation to ADP. ATP is present in all-living cells and declines rapidly upon cell death. In addition, this assay in combination with the MTT assay provides an indicator of mitochondrial activity and energy status of the cell.
(§7) Plates were analyzed immediately or stored at −20° C. until needed. On the day of analysis, the plates were thawed and calibration curve prepared with ATP in the same liquid matrix as samples. ATP was quantified by adding ATP substrate solution and then reading luminescence on a Packard Fusion Luminescence or equivalent plate reader.
(§8) Intracellular ATP Levels: ATP levels in treated cells could be determined by using the regression coefficients obtained from the linear regression analysis of the calibration curve. Thus, values could be expressed as pmoles ATP/million cells. Background corrected luminescence was used to determine percent change relative to controls by dividing treated values by control values and multiplying by 100.

H4IIE cells [7] = assay: Intracellular ATP levels; type: cell-based, rat
Description: as §1, §2, §6, §7, §8

rat cardiomyocytes [8] = assay: Intracellular total glutathione (GSH); type: cell-based
Description: as §1

H4IIE cells [9] = assay: Intracellular total glutathione (GSH); type: cell-based, rat
Description: as §1, §2

rat cardiomyocytes [10] = assay: Membrane lipid peroxidation (8-isoprostane ELISA); type: cell-based
Description: (§9) One test compound (Compound A) was received as dry powder and evaluated for potential cytotoxicity in a battery of in vitro assays. The compound was tested using both rat cardiomyocytes (CM) from rat neonates and a rat hepatoma (H4IIE) cell line. […] Camptothecin and rotenone were included as positive control compounds. The cell supernatant or the cells themselves were harvested for biochemical analysis. General cytotoxicity was evaluated by monitoring membrane integrity, mitochondrial function, cell proliferation, oxidative stress, and apoptosis. In addition, interaction with P-glycoprotein (PgP) on H4IIE cells and solubility of the test compound were also assessed. The means of each exposure group (n=3-7) were calculated for each assay performed. Intra assay variation well-to-well was typically less than 10% with plate to plate variation typically less than 20%.

H4IIE cells [11] = assay: Membrane lipid peroxidation (8-isoprostane ELISA); type: cell-based, rat
Description: as §9, §2

P-glycoprotein (PgP) = P-glycoprotein (PgP) binding: MTT with and without cyclosporin A; type: cell-based, rat; settings: H4IIE 24 HR; for % Control (Compound + CSA) / % Control (Compound): MTT, 50 μM; for % Control (Compound + CSA): with cyclosporin A; for % Control (Compound): without CSA
Description: Several antiviral drugs are substrates for P-glycoprotein transporter (PgP).
P-glycoprotein (PgP) transport proteins are expressed in the bile canalicular membrane of normal liver. However, in neoplastic cells it is not uncommon to have expression of this transporter system in the plasma membrane. […] The existence of these transporters was evaluated with the Calcein-AM assay and with known substrates of PgP.

[12] = Metabolic stability (LC/MS, parent remaining); type: in vitro ADME, rat; settings: 1 μM, 30 min at 37° C.
Description: (§10) Metabolic stability was conducted using pooled microsomes form induced (BNF/PB) male rat (Sprague-Dawley) animals and induced (BNF/PB) male dog (Beagle) animals. The test compounds were incubated for 30 min at 37° C. at concentrations of 1 μM. Subsequent LC/MS analysis measured disappearance of the parent molecule. The data are expressed as percent of parent remaining. Positive controls for highly metabolized compounds were included for comparison.
(§11) Metabolic Stability and Profiling by mass spectrometry: Metabolic stability was conducted using pooled male dog (beagle) microsomes and male rat (Sprague-Dawley) microsomes from induced (beta-Naphthoflavone/Phenobarbital, BNF/PB) animals. The test compounds were incubated for 30 min at 37° C. at concentrations of 1 and 10 μM. Subsequent analysis by mass spectrometry measured disappearance of the parent molecule. The data are expressed as percent of parent remaining. Positive controls for highly metabolized compounds were included for comparison.
(§12) Metabolic Stability: The analysis measured disappearance of the parent molecule. The data were expressed as percent of parent remaining. Positive controls for highly metabolized compounds were included for comparison.

[13] = Metabolic stability (LC/MS, parent remaining); type: in vitro ADME, dog; settings: 1 μM, 30 min at 37° C.
Description: as §10, §11, §12

[14] = Metabolic activation (disappearance of GSH); settings: liver microsomes from Phenobarbital/BNF induced rats
[15] = MemTox membrane leakage (AK / α-GST); type: cell-based, rat; settings: rat
Description: as §1, §3, §4

MTT reduction = type: cell-based, rat; settings: rat
Description: as §1, §5

Intracellular ATP levels = type: cell-based, rat; settings: rat
Description: as §1, §6, §7, §8

H4IIE cells [16] = assay: Predicted Ctox from Tox-Panel; type: cell-based, rat; settings: 24 HR, estimated sustained plasma concentration where toxicity would be expected in vivo
Description: Once all data for a given cluster of assays are received, the data are analyzed to obtain a detailed profile of the compound's toxicity. For example, most conveniently, the data are collated over a dose response range on a single graph. In such an embodiment, the measurement evaluated for each parameter (i.e., each indicator of cell health) at any given concentration is plotted as a percentage of a control measurement obtained in the absence of the compound. However, it should be noted that the data need not be plotted on a single graph, so long as all the parameters are analyzed collectively to yield detailed information of the effects of the concentration of the compound on the different parameters to yield an overall toxicity profile. As set forth below, this overall toxicity profile will facilitate a determination of a plasma concentration Ctox that is predicted to be toxic in vivo. Ctox represents an estimate of the sustained plasma concentration in vivo that would result in toxicity, such as hepatotoxicity or hematopoietic toxicity.
Studies such as these indicate that a preferred concentration for setting Ctox is the highest concentration at which there is no observed effect on any of the indicators being measured in the cluster analysis, especially a 24-hour cluster analysis. […] It will be apparent that 24 hour assays are more time-effective, and consequently, the 24 hour NOEL/Ctox represents a preferred data point to select as Ctox in a CATS assay. It will also be apparent that, with further time studies, it may be possible to select an equally suitable Ctox at other CATS assay time points (e.g., between 24 and 72 hours, or less than 24 hours).
In certain embodiments, the predicting comprises performing concentration response analyses of measurements from at least three separate assays that are employed in the cluster analysis. For example, in the cell health cluster, such predicting will involve monitoring the concentration response effect of the compound on a first health indicator which monitors cellular replication, a second cell health indicator which monitors mitochondrial function, and a third cell health indicator which monitors membrane integrity. Of course, it is understood that fourth, fifth, sixth or more cell health indicators also may be employed. From these concentration response analyses, the highest concentration of the chemical compound at which a measurable toxic effect of the chemical compound is not observable, i.e. NOEL, is determined and the Ctox is identified as the concentration that correlates to the NOEL. In choosing the concentrations of the compound for analysis, one of skill in the art should devise a dose response regimen which is selected to provide an indication of cell health at concentrations of at least two concentration values higher than the Ctox concentration.
The Ctox (H4IIE) value was developed using 24 hr in vitro toxicity data and was validated by retrospectively evaluating compounds across different classes of drugs in 14-day rat studies in which compounds were administered on a daily basis and pharmacokinetic data was available. […] Thus, Ctox values are only determined for the 24 hr in vitro results. The 6 hr toxicity analyses are typically not performed but are beneficial for interpretation of results when compound toxicity is high (e.g., Ctox≦20 μM).

[17] = Intracellular total glutathione (GSH); type: cell-based, rat; settings: rat
Description: as §1

[18] = Intracellular total glutathione (GSH); type: cell-based, rat; settings: rat, Total GSH TC50
Description: as §1, §2

For `Cc1cn([C@H]2C[C@H](N=[N+]=[N-])[C@@H](CO)O2)c(=O)[nH]c1=O` [AZT], the CC50 (H4IIE cells [1]) was > 300 µM, the CC50 (rat cardiomyocytes [2]) was > 300 µM and the CC50 (H4IIE cells [3]) was > 300 µM. The CC50 (rat cardiomyocytes [4]) was > 300 µM, the CC50 (H4IIE cells [5]) was > 300 µM and the CC50 (rat cardiomyocytes [6]) was > 300 µM. For the same compound, the CC50 (H4IIE cells [7]) was > 300 µM, the CC50 (rat cardiomyocytes [8]) was > 300 µM and the CC50 (H4IIE cells [9]) was > 300 µM. The “Membrane Lipid Peroxidation” value (rat cardiomyocytes [10]) was 0, the “Membrane Lipid Peroxidation” value (H4IIE cells [11]) was 0 and the “% Control (Compound + CSA)” value (P-glycoprotein (PgP)) was 99.0%. For the same compound, the “% Control (Compound)” value (P-glycoprotein (PgP)) was 116.6%.
For `Cc1ncc2n1-c1ccc(Cl)cc1C(c1ccccc1F)=NC2` [MIDAZOLAM], the “% Parent Remaining Rat Microsomes” value [12] was 0.0% and the “% Parent Remaining Dog Microsomes” value [13] was 0.0%.
For `CC(C)C(=O)Nc1ccc([N+](=O)[O-])c(C(F)(F)F)c1` [flutamide], the “reduction in GSH (metabolic activation)” value [14] was “most pronounced effects”.
With `CC(C)(C)NC(=O)[C@@H]1CN(Cc2cccnc2)CCN1C[C@@H](O)C[C@@H](Cc1ccccc1)C(=O)N[C@H]1c2ccccc2C[C@H]1O` [indinavir] the “Cell Number TC50” value (H4IIE cells [1]; rat, 24 h) was 300 µM, the CC50 at 24 h [15] was > 300 µM and the “MemTox TC50” value (H4IIE cells [3]; rat, 24 h) was 300 µM. For the same compound, the CC50 at 24 h (MTT reduction) was > 300 µM, the “MTT TC50” value (H4IIE cells [5]; rat, 24 h) was 300 µM and the CC50 at 24 h (Intracellular ATP levels) was > 300 µM. The “ATP TC50” value (H4IIE cells [7]; rat, 24 h) was 300 µM, the “Predicted Ctox” value (H4IIE cells [16]) was 90 µM and the CC50 at 24 h [17] was 71 µM. For the same compound, the CC50 at 24 h [18] was 249 µM, the “% Control (Compound + CSA)” value (P-glycoprotein (PgP)) was 91.3% and the “% Control (Compound)” value (P-glycoprotein (PgP)) was 106.0%. For the same compound, the “% Difference” value (P-glycoprotein (PgP); 1-20% low, 20-50% moderate, 50-100% high PgP interaction) was 13.9%.
